From patent publication US20110245171A1, “REHYDRATION COMPOSITIONS COMPRISING EPIDERMAL GROWTH FACTOR (EGF)” (priority 2004, published 2011)

Legend:
[1] = tested on: jejunal tissue from rabbits infected with attaching-effacing E. coli (RDEC-1); assay: Jejunal 3-O-methyl glucose transport in Ussing chambers; set-up: species or system rabbit
Procedure: Rabbits infected with attaching-effacing E. coli (RDEC-1) were used (20). Briefly, experimental rabbits (400-600 g) were orally inoculated with 5×10^7 live E. coli in 1 mL 10% sodium bicarbonate. Controls received sodium bicarbonate only. Animals were housed individually in a level B containment room, fed commercial feed and given water ad libitum. Ten days post-infection, all animals were killed with an intra-peritoneal overdose of sodium pentabarbitone following anesthesia with halothane. A 20-cm segment of jejunum beginning 5 cm distal to the ligament of Treitz was then removed and rinsed with ice-cold Kreb's buffer. Both longitudinal and circular muscle layers were stripped from the underlying mucosa and four adjacent pieces of jejunal tissue mounted under short-circuited conditions in Ussing chambers. Both mucosal and serosal surfaces were bathed in 10 ml of oxygenated Kreb's buffer with 10 mM glucose added to the serosal surface to provide metabolic energy to the tissue, 10 mM mannitol added to the mucosal surface to osmotically balance the glucose solution, and 20 mM 3-O-methyl glucose added to both surfaces. Immediately after mounting, 10 μCi 3-O-methyl[^3H]glucose was added to either the serosal or mucosal surface and allowed to equilibrate for 20 min. 3-O-methyl glucose is a non-metabolized glucose analog. Unidirectional mucosal to serosal (Jms) and serosal to mucosal (Jsm) fluxes were then determined by measuring 3 consecutive 5 min flux intervals and an overall 15 min flux interval before and after the addition of 100 ng/ml human recombinant epidermal growth factor (rhEGF) (Austral Biologicals, San Ramon, Calif.) or vehicle to the mucosal reservoir. Net flux (Jnet) was calculated by subtracting the serosal to mucosal flux, Jsm, from the mucosal to serosal flux, Jms. Clinical symptoms were monitored including fecal shedding of the bacterium.

[2] = tested on: giardiasis; details: compared to untreated animals, literature; cited from earlier work
[3] = tested on: jejunal nutrient transport; details: cited from earlier work
[4] = tested on: Cryptosporidium parvum; details: in vitro, literature; cited from earlier work
[5] = tested on: C. parvum; details: literature; cited from earlier work
[6] = tested on: Salmonella typhimurium; details: in vitro, literature; cited from earlier work
[7] = tested on: K88 positive E. coli; assay: Enteropathogenic E. coli infection in piglets, oral EGF; type: in vivo
Procedure: An enteropathogenic Escherichia coli isolate obtained from Veterinary Pathology Laboratories (VPL), Edmonton, Alberta was utilized in these experiments. This strain was originally isolated from a piglet with diarrhea and is positive for Stb, Lt, and K88 (F4). This strain is referred to as K88 positive E. coli. Enteropathogenic E. coli infections produce primarily a malabsorptive diarrhea, although there is a smaller secretory component.
Bacteria were grown in LB™ broth (Difco Laboratories, Detroit, Mich.) and frozen on Microbank™ porous beads (Pro-Labs Diagnostics, Richmond Hill, ON) at −70° C. For each inoculum preparation, one bead was thawed and incubated in 20 ml sterile LB™ broth for 5 h at 37° C., 200 rpm. Then, the 20 ml starter culture was placed in 980 ml LB™ broth and incubated at 37° C. for 15 hours, 200 rpm. LB™ broth was aliquoted in 18 sterile polystyrene 50 ml tubes (Falcon), centrifuged at 3000 rpm (floor Sorval) for 10 minutes, and all pellets pooled and resuspended in 50 ml 10% […]-sterile PBS.
Inoculum: Piglets received late log phase 1×10^10 (counted by spectrophotometry, 600 nm, A=1.9) live K88 positive E. coli. Bacterial inoculum was delivered in 10% NaHCO3/sterile PBS (5 ml), followed by lactate Ringer's solution (5 ml). The inoculum (10 ml) was delivered via a 40 cm orogastric intubation tube connected to a 20 cc syringe. Total bacterial counts in inoculum were calculated via serial dilutions plated onto LB™ agar and incubated overnight at 37° C., 5% CO2.
A pregnant sow was purchased from a local commercial supplier (Doug Hall, Airdrie, AB) approximately one week prior to due-date. The sow was housed at the University of Calgary farm in a farrowing pen. The sow was given free access to water and pig feed (Doug Hall, Airdrie, AB). Two-day old piglets were weight ranked and randomly assigned to each experimental group (see below), and treatment was initiated that day (Day-1). Inoculation with live K88 positive E. coli was carried out the following day (Day 0). […]

[8] = tested on: piglets with spontaneous neonatal diarrhea; assay: Spontaneous neonatal diarrhea in piglets, oral EGF; type: in vivo
From the text: A pregnant sow was purchased from a local commercial supplier (Doug Hall, Airdrie, AB) approximately one week prior to due-date. The sow was housed at the University of Calgary farm in a farrowing pen. The sow was given free access to water and pig feed (Doug Hall, Airdrie, AB). Two-day old piglets were weight ranked and randomly assigned to each experimental group (see below), and treatment was initiated that day (Day 0) and animals assessed 24 hr later. […] Piglets with their sow were housed separately in contained animal facilities for the duration of the experiment at the University of Calgary farm. Housing was at 20° C., with approximate 8:16 h photoperiods.
Piglets were assigned to one of the following experimental groups: 1) untreated animals gavaged orally with 5 mL sterile PBS daily starting on Day 0, and 2) EGF-treated, gavaged orally with rhEGF in 5 mL sterile PBS at a concentration of 100 μg/kg body weight daily starting on Day 0.
The study was terminated on Day 1. A total of 10 piglets were studied, 5 were given EGF, and 5 received vehicle (untreated).
Piglets were checked daily for weight gain, production of diarrhea, and overall clinical condition (alertness, body posture, condition). In addition, daily fecal scoring was carried out twice daily (9:00 am, and 3:00 pm) as follows: 0=solid, formed stools, 1=soft stools with no perineal soiling, 2=non-bloody diarrhea with perineal soiling, 3=bloody diarrhea with perineal soiling.
All morning observations were performed between 7:00 am and 12:00 pm to avoid diurnal variations. One additional fecal scoring was carried out at 3:00 pm.

[9] = tested on: bacteria and protozoa; details: literature; cited from earlier work
[10] = tested on: enteropathogenic E. coli; details: literature; cited from earlier work
[11] = tested on: pathogenic strains of Escherichia coli; details: in vitro, literature; cited from earlier work
[12] = infected tissue treated with EGF compared to controls
[13] = infected tissue, 10 days post-infection, 100 ng/ml rhEGF on mucosal surface

EGF: 53-amino acid human epidermal growth factor of SEQ ID NO: 1; recombinant human EGF used in the experiments
mucosal to serosal 3-O-methyl glucose transport [1, 12]: did not differ | net 3-O-methyl glucose transport [1, 12]: did not differ | mucosal to serosal flux of 3-O-methyl glucose [1, 13]: significantly increased | net flux of 3-O-methyl glucose [1, 13]: significantly increased | intestinal function [2]: enhanced | trophozoite colonization [2]: inhibited | SGLT1 content in the microsomal fraction [3]: decrease | enterocyte glucose transport [3]: increase | defect in glucose transport ([3]; following administration of octreotide, literature): reverse | BBMV SGLT1 content ([3]; literature): significant increase | amino acid transport ([3]; literature): rapidly increases | brush border (apical) surface area ([3]; literature): increase | glucose transport ([3]; literature): rapidly increases | ileal electroneutral NaCl absorption and brush-border Na+/H+ exchange ([3]; literature): increase | jejunal glutamine, alanine galactose and glycine transport ([3]; literature): increase | Vmax for glucose uptake into brush border membrane vesicles (BBMV) ([3]; mucosal EGF, literature): increased | Vmax for proline uptake into brush border membrane vesicles (BBMV) ([3]; mucosal EGF, literature): increased | epithelial colonization [4]: reduce | fecal oocyte passage [5]: decreased | epithelial bacterial translocation and invasion [6]: inhibit | weight gain ([7]; EGF-treated compared to untreated, over the course of the study): did not differ | acceleration of return to normal fecal consistency ([7]; compared to untreated animals (day 3 instead of day 4)): one day | day by which fecal scores returned to normal (fecal score of 0 in all animals) ([7]; rhEGF 100 μg/kg oral gavage daily from Day -1, infected Day 0, untreated: Day 4): ≤ 3 days | fecal scores ([8]; Day 1, one day after initiation of treatment, rhEGF 100 μg/kg oral, compared with vehicle): significantly (P<0.05) reduced | animals that had died ([8]; Day 1, 5 piglets given EGF, 2 untreated died): 1 | weight gain ([8]; EGF compared to untreated): did not differ | anti-protozoal effect [9]: no direct | bactericidal effect [9]: no direct | bacterial colonization [10]: significantly inhibited | diarrhea and reduced weight gain associated with the disease [10]: prevented | epithelial damage [10]: reduced | epithelial bacterial translocation and invasion [11]: inhibit

TGFα: related peptide that binds to the EGF receptor [reference compound]
brush border (apical) surface area ([3]; literature): had no effect | glucose transport ([3]; literature): had no effect | small intestinal absorption ([3]; some studies, literature): increase
